“Also recorded” adds a separate entry of the source.
Key:
[1] = system: xanthurenic acid receptor(s); assay type: cell-based
rat [2] = experiment: Open field test of global reactivity (XA); settings: in vivo
rat [3] = experiment: Social interactions between two congeners; settings: in vivo
From the text: This tendency was confirmed by a test evaluating social interactions between two congeners (Ramos et al., Behav. Brain Res., 1997, 85: 57–69).

rat [4] = experiment: Porsolt test (swimming test); settings: in vivo
Protocol: The following doses were used: 50, 100, 150 and 200 mg/kg i.p.
This test has been validated with imipramine 30 mg/kg. The test described by Porsolt et al., Eur. J. Pharmacol. 1978, 47: 379–391, was used.

rat [5] = experiment: Object recognition test; settings: in vivo
Protocol: Ennaceur and Delacour, Behav. Brain Res. 1988, 31: 47–59.
Doses of 37.5 and 75 mg/kg i.p. were used.

rat [6] = experiment: Dopaminergic stereotypies after intracerebral injection; settings: in vivo
Protocol: The product was injected by the intracerebroventricular route (i.c.v.) on the one hand, and in defined brain structures on the other hand: ventral tegmental area (A10), substantia nigra (A9) or nucleus accumbens. […] After disappearance of the stereotypies (30±15 minutes), reinjection of XA induced the same effects.
The following stereotypies are observed: licking, chewing, hyperactivity, exploring, standing, grooming, burrowing, stretching and sniffing.
These behaviors developed two minutes after the intracerebral injection and lasted for 30 to 40 minutes. One hour after such behaviors disappeared, they could be re-induced by another injection.

rat [7] = experiment: Rotations in rats with unilateral 6-OHDA lesions; assay type: in vivo; settings: rat, in vivo
[8] = system: glutamate release in the frontal cortex; experiment: Frontal extracellular glutamate release after retrodialysis of XA; settings: rat, in vivo
Protocol: Amino acids contained in 15 μl of dialysate were separated according to their hydrophobicity by reverse phase high performance liquid chromatography (HPLC). […] The mobile phase was composed of a binary gradient between solution A: 0.05 M NaH2PO4 (Roth) 80% (pH 4.8 adjusted with 10 N NaOH), methanol 20% (Chromanorm, Prolabo); and solution B: 0.05 M NaH2PO4 20% (pH 4.8 ajusted with 10 N NaOH), methanol 80% and THF 5%. Glutamate and GABA were measured by fluorimetric detection at an excitation wavelength of 345 nm and an emission wavelength of 455 nm after derivatization. Chromatogram acquisition and quantitative data analysis were done with Millenium software (Waters).
The samples were derivatized by mixing 15 μl of dialysate with 15 μl of the following derivatization solution: 7.5 mg o-phthaldialdehyde (Sigma) in 4.5 ml of 0.1 M sodium tetraborate pH 9.3, 500 μl of methanol and 10 μl of 3-mercapto-propionic acid (Sigma). The elution rate was 0.8 ml/min at 35° C. in a series of steps: 90% A and 10% B at 0 min; 40% A and 60% B to 15 min (linear gradient); 40% A and 60% B to 19 min (isocratic gradient); 0% A and 100% B to 19.1 min; 0% A and 100% B to 24 min (isocratic gradient); 90% A and 10% B to 24.1 min (isocratic gradient) and 90% A and 10% B to 30 min. […]

rat [9] = experiment: Reversal of XA-induced sedation in the open field test; settings: in vivo
Protocol: Study of reversal of sedation induced by XA 100 mg/kg i.p

rat [10] = settings: in vivo
rat [11] = settings: in vivo; cited from earlier work
[12] = in vivo, ip; cited from earlier work
rat [13] = settings: in vivo; cited from earlier work; remark: listed apart in the source
mice = settings: mouse, in vivo; cited from earlier work
[14] = system: Grp 94 and calreticulin expression; settings: cited from earlier work

SMILES: O=C(O)c1cc(O)c2cccc(O)c2n1 [XA, xanthurenic acid]
- factor of increase of current amplitude at the peak of the transient current [1]: 5 factor
- factor of increase of current amplitude, on average [1]: 5.0±1.7 factor
- inversion potential, onset of the response [1]: −16.5 mV
- inversion potential, second phase of the response [1]: −4.2 mV
- mean outflux current [1]: considerably increased
- doses to obtain an anxiolytic effect in animals (rat [2]): less than 50 mg/kg
- exploration of the center of the cage / open field (rat [2]): significantly increased; also recorded: promotes movement of the animal to the center of the lighted open field
- sedation in the open field test (rat [2]): absence of sedation
- duration of social interactions (rat [3]): significant increase in the duration of social interactions; also recorded: induces an increase in the duration of social interactions
- sedation in the social interaction test (rat [3]): significant sedative effect
- cumulative duration of immobility (rat [4]): statistically significant decrease in the cumulative duration of immobility; also recorded: duration of immobility decreases with increasing doses
- object recognition score (rat [5]): significant increase in the object recognition score
- stereotypies (rat [6]): dose-related stereotypies were observed; also recorded: induced dose-dependent stereotypies
- time to disappearance of the stereotypies (rat [6]): 30 ± 15 min
- controlateral rotations induced by apomorphine (rat [7]): did not antagonize; also recorded: did not modify the number of controlateral rotations
- ipsilateral rotations induced by amphetamine (rat [7]): had no effect
- decrease in GLU release [8]: 37%
- Grooming (rat [9]): 4 ± 2
- Inner squares (rat [9]): 19 ± 6
- Outer squares (rat [9]): 91 ± 17
- Standing (rat [9]): 37 ± 14
- Total squares (rat [9]): 110 ± 25
- amplitude of the EEG waves (rat [10]): reduction in the amplitude of the EEG waves
- decrease in body temperature (rat [10]): −0.5 to −2 °C
- analgesic effect in hotplate and tail flick tests (rat [11]): analgesic effect
- latency time to onset of epileptic seizures [12]: prolonged the latency time to onset of epileptic seizures
- ECG (rat [13]): does not modify the ECG
- head twitch behavior (mice): does not induce head twitch behavior
- expression of Grp 94 and of calreticulin [14]: induces an increase in the expression
- xanthurenic acid concentrations required to produce these effects [14]: in the millimolar range
